Assay results: patent US20030181377A1, “Inhibition of VEGF receptor signaling reverses tumor resistance to radiotherapy” (Vanderbilt University, priority 2002, published 2003)

Key:
[1] = system: EPCs in GI261 gliomas; experiment: Endothelial progenitor cell (EPC) infiltration of irradiated tumor; format: in vivo, mice; conditions: SU5416 and radiation; tumor sections on days 1, 4 and 7
Protocol: EPCs were isolated from peripheral circulation, fixed with paraformaldehyde, and incubated with antibodies that specifically bind to Flk or to CD31. A fluorescently-labeled secondary antibody was used to detect Flk and CD31 (PECAM; platelet-endothelial cell adhesion molecule 1) proteins on the surface of EPCs.
Mice bearing GI261 gliomas, generated as described in Example 1, received radiation […] treatment of the tumor. EPCs were isolated from peripheral circulation and fluorescently labeled with Dil (1,1′-dioctadecyl-3,3,3′,3′-tetramethylindocarbocyanine perchlorate; available from Molecular Probes, Inc., Eugene, Oreg., United States of America). Labeled EPCs were then administered via tail vein injection to tumor-bearing mice immediately following tumor irradiation. Tumor sections were obtained on days 1, 4, and 7 following irradiation. In control mice, EPCs were detected in the perivascular space at day 4, and then proliferated and migrated into to the tumor by day 7.

[2] = system: GL261 and B16F0 tumor blood flow; experiment: Power Doppler sonography of tumor blood flow; format: in vivo, C57BL6 mice
Description: Power Doppler sonography was used to study the response of tumor blood vessels to ionizing radiation. This method utilizes amplitude to measure flow in microvasculature. Tumors were imaged with a 10-5 MHz ENTOS® linear probe (Advanced Technology Laboratories, Inc., Bothell, Wash., United States of America) attached to an HDI® 5000 diagnostic ultrasound system (Advanced Technology Laboratories, Inc., Bothell, Wash., United States of America).
Power Doppler sonography images were obtained with the power gain set to 82%. Care was taken to minimize motion artifact. A 20-frame cineloop sweep of the entire tumor was obtained with the probe perpendicular to the long axis of the lower extremity along the entire length of the tumor.
The images were analyzed using HDI® software (Advanced Technology Laboratories, Inc., Bothell, Wash., United States of America). This software allows direct evaluation of Power Doppler cineloop raw data. Color area was recorded for the entire tumor. […]
To determine whether inhibition of Flk-1-mediated signal transduction also enhances the cytotoxic effects of radiotherapy in established tumors, Power Doppler sonography was used to quantify blood flow in 1 cm diameter tumors treated with Flk-1 inhibitors and ionizing radiation. […] Blood flow was quantified by Power Doppler sonography on days 4 and 7 according to methods described in Example 3.

[3] = in vivo; cited from earlier work
[4] = system: HUVEC; experiment: Radiation-induced apoptosis in endothelial cells (HUVEC); format: cell-based, human
Protocol: FIG. 5 is a bar graph depicting an increased percentage of endothelial cells undergoing apoptosis in response to VEGF-R2 inhibition followed by radiotherapy. […] Cells were treated. with 6 Gy of radiation and stained 24 hours later. The percentage of cells undergoing apoptosis was determined for each of the treatment groups as described in Example 6. The mean percentage of apoptotic cells and the standard error of the mean were determined using 4 culture plates in each treatment group.
To determine whether Flk-1 inhibitors enhance radiation-induced intrinsic cell death mechanisms, radiation-induced apoptosis in HUVEC human primary culture endothelial cells, 3B11 murine endothelial cells, and human microdermal endothelial cells (HMEC) was studied following Flk-1 inhibition. […] Cells were then treated with 6 Gy of ionizing radiation. Cultures were stained to reveal apoptotic cells 24 hours later. Endothelial cell death was quantified by counting the number of apoptotic bodies in 100 cells.

[5] = system: GL261 and B16F0 tumor blood vessels; experiment: Tumor vascular window model (vascular length density); format: in vivo, C57BL6 mice
Protocol: Penicillin/streptomycin solution (200 μl; available from GIBCO™ Invitrogen Corporation, Carlsbad, Calif., United States of America) was injected into the hind limb of the mouse prior to preparation of the window chamber. The dorsal ventral window chamber was prepared using a 3-gram plastic frame, which was applied to the skin of a test animal and remained attached for the duration of the study. Briefly, the chamber was screwed together, and the epidermis was cut and left open with a plastic covering.
To prepare a test animal for application of the plastic frame, the dorsal midline was found along the animal's back, and a clip was placed to hold the skin in position. […]
GL261 and B16F0 cells were implanted into the dorsal skin fold window chamber. […] Scanned slides were analyzed using OPTIMAS® image analysis software (Bioscan, Inc., Edmonds, Wash., United States of America; available from Media Cybernetics, Silver Spring, Md., United States of America) or IMAGE-PRO® software (Media Cybernetics, Silver Spring, Md., United States of America) as described below.
Vascular center lines were positioned by OPTIMAS® software or IMAGE-PRO® software and verified by an observer blinded to the treatment groups. Tumor blood vessels were quantified using OPTIMAS® software, which quantified the vascular length density of blood vessel within the microscopic field. […]

[6] = system: tumor blood flow (B16F0, LLC, GL261, D54 tumors); experiment: Restoration of tumor blood flow after radiotherapy (Doppler); format: in vivo, mice; conditions: SU5416 in combination with radiation, measured daily for 7 days; radiation-only controls restored flow by day 7
Description: FIG. 7 is a bar graph depicting inhibition of tumor revascularization via administration of a VEGF-R2 inhibitor. Doppler analysis of blood flow in four tumor types is shown on 3, 5, and 7 days following radiation treatment. Animals received radiation treatment alone (control) or in combination with SU5416. In control animals, tumor revascularization occurs within 7 days following radiation treatment. Tumor revascularization is repressed in animals receiving SU5416 in combination with radiation treatment. Open bars, B16F0 tumors; solid bars, LLC tumors; stippled bars, GL261 tumors; hatched bars, D54 tumors.
Tumor-bearing mice were generated as described in Example 1. […] Control animals were treated with radiation alone. Doppler analysis of tumor blood flow was measured daily for 7 days using the methods described in Example 3. In control animals receiving only radiation treatment, restoration of tumor blood flow was observed by day 7.

[7] = system: GL261 tumors; experiment: Tumor volume assessment / growth delay; format: in vivo, C57BL6 mice
Protocol: GL261 tumors were generated by subcutaneous injection of 10^6 viable GL261 cells suspended in 0.2 ml of a 0.6% agarose solution into the right thigh of C57BL6 mice. […] An equal number of large and intermediate size tumors were present in each group. […] Control mice received identical doses and schedule of either SU5416 alone or radiation alone. Twice each week, tumor volumes were measured using skin calipers as previously described by […] et al., 1998; […] et al., 1995; and Staba et al., 1998. Tumor volumes were calculated using a formula: a×b×c/2, where a=maximal width dimension, b=maximal length dimension, and c=maximal depth dimension, which was derived from the formula for an ellipsoid (πd^3/6). Data were calculated as the percent of original (day 0) tumor volume and graphed as fractional tumor volume ±1 standard deviation for each treatment group. Variance was analyzed by the Kruskal-Wallis method (Kruskal & Wallis, 1952). Growth delay was determined as the number of days required for a tumor to reach a predetermined volume, for example three-fold the original volume, or a volume of 1 cm^3. […] In a second experiment, mice were randomly assigned to each of the four treatment groups for a total of 10 mice in each group. […] Flk-1 inhibition and radiation treatments were initiated fourteen days after the tumor cells had been injected and were performed as described herein above.

[8] = system: HUVEC; conditions: Lin et al., 1998; cited from earlier work
[9] = system: Flk-1; conditions: Lin et al., 1998; cited from earlier work

Row | Molecule | extravasation of EPCs into the tumor [1] | reduction in tumor blood flow, SU5416 plus radiation ([2]; 0.75 mg intraperitoneal 1 hour prior to irradiation, 3 Gy per day for 7 days, p=0.004 vs either treatment alone) | reduction in tumor blood flow, SU5416 alone ([2]; 0.75 mg intraperitoneal, 3 doses, no radiation, 1 cm GL261 and B16F0 tumors, days 4 and 7) | plasma half-life [3] | percentage of apoptotic cells, with radiation ([4]; 50 μM SU5416 or 10^8 pfu Ad.ExFlk plus 6 Gy, stained 24 hours later) | percentage of cells undergoing apoptosis, no radiation ([4]; 50 μM SU5416 or 10^8 pfu Ad.ExFlk, not exposed to ionizing radiation) | time to complete destruction of tumor blood vessels ([5]; 0.75 mg administered 1 hour prior to 2 Gy, p=0.02 vs radiation alone) | regression of tumor blood vessels, SU5416 alone ([5]; 0.75 mg, absence of ionizing radiation) | tumor blood flow after radiation treatment [6] | tumor growth delay, SU5416 alone ([7]; 0.75 mg intraperitoneal on days 0, 4, 7 and 11, first experiment) | tumor volume, SU5416 followed by radiation ([7]; first experiment (FIG. 6A), 0.75 mg i.p. ×4 plus 3 Gy ×8, p=0.01 vs radiation alone, p<0.009 vs SU5416 alone) | tumor volume, SU5416 and radiation ([7]; second experiment (FIG. 6B), 10 mice per group, p=0.01 vs radiation alone, p=0.006 vs SU5416 alone) | VEGF-induced DNA synthesis and migration in HUVEC [8] | activation of Flk-1 [9]
1 | Cc1cc(C)c(/C=C2\C(=O)Nc3ccccc32)[nH]1 [SU5416] | extravasation of EPCs into the tumor was prevented | significant reduction in tumor blood flow | minimal reduction | 1 to 2 h | 14% | 4% | ≤ 24 h | minimal regression of the tumor blood vessels and rapid restoration of vasculature | tumor blood flow was repressed | No growth delay | significantly reduced tumor volumes | significantly reduced tumor volumes | – | –
2 | ExFlk.6His: soluble extracellular component of Flk-1 tagged with 6 histidine residues (protein, UniProt P35918 20-762, looked up, extracellular domain His6 tag) extracellular domain: ASVGLPGDFLHPPKLSTQKDILTILANTTLQITCRGQRDLDWLWPNAQRDSEERVLVTECGGGDSIFCKTLTIPRVVGNDTGAYKCSYRDVDIASTVYVYVRDYRSPFIASVSDQHGIVYITENKNKTVVIPCRGSISNLNVSLCARYPEKRFVPDGNRISWDSEIGFTLPSYMISYAGMVFCEAKINDETYQSIMYIVVVVGYRIYDVILSPPHEIELSAGEKLVLNCTARTELNVGLDFTWHSPPSKSHHKKIVNRDVKPFPGTVAKMFLSTLTIESVTKSDQGEYTCVASSGRMIKRNRTFVRVHTKPFIAFGSGMKSLVEATVGSQVRIPVKYLSYPAPDIKWYRNGRPIESNYTMIVGDELTIMEVTERDAGNYTVILTNPISMEKQSHMVSLVVNVPPQIGEKALISPMDSYQYGTMQTLTCTVYANPPLHHIQWYWQLEEACSYRPGQTSPYACKEWRHVEDFQGGNKIEVTKNQYALIEGKNKTVSTLVIQAANVSALYKCEAINKAGRGERVISFHVIRGPEITVQPAAQPTEQESVSLLCTADRNTFENLTWYKLGSQATSVHMGESLTPVCKNLDALWKLNGTMFSNSTNDILIVAFQNASLQDQGDYVCSAQDKKTKKRHCLVKQLIILERMAPMITGNLENQTTTIGETIEVTCPASGNPTPHITWFKDNETLVEDSGIVLRDGNRNLTIRRVRKEDGGLYTCQACNVLGCARAETLFIIEGAQEKTNLE | – | – | – | – | – | – | – | – | – | – | – | – | inhibits | blocks activation of Flk-1
